# Source: patent US20260365682A1, “MODULATORS OF TNF-ALPHA ACTIVITY” (Forward Therapeutics, Inc., priority 2022, published 2026)
# Biological target: T1, TNF-α (Homo sapiens, UniProt P01375)
# T1 construct: purchased R&D 210-TA-020/CF
# Assay: TNF-α Induced HEK Blue Cellular Assay (secreted alkaline phosphatase expression, QUANTI-Blue)
# Type: cell-based
# Details: HEK Blue TNFα reporter cells; TNF-α 100 μg/ml; 24 hrs at 37° C.; inhibition of secreted alkaline phosphatase; read-out: IC50 value
# Method in brief: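 HEK Blue TNFα reporter cells (10,000/well) in DMEM with 10% FBS received compound ([…] to 0.5 nM final) and TNF-α at […] final for 24 h at 37° C. Secreted alkaline phosphatase read with QUANTI-Blue at 620 nm. IC50 came from a 4-parameter logistic fit after normalising to unstimulated and stimulated DMSO controls.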
# T1 sequence (P01375 77-233 limits assumed): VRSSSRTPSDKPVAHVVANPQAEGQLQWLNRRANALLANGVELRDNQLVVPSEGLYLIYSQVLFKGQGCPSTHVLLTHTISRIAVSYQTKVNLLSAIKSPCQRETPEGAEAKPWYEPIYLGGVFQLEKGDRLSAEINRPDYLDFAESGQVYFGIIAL
row,IC50,Compound
1,< 0.1 µM,"[2H]C([2H])([2H])N1C(=O)c2cccc(OC(F)F)c2[C@H]2C[C@@H]1c1nc3ccc(C#C[C@H](C)N)cc3n12 [Example 51, (7R,14R)-11-((S)-3-aminobut-1-yn-1-yl)-1-(difluoromethoxy)-6-(methyl-d3)-6,7-dihydro-7,14-methanobenzo[f]benzo[4,5]imidazo[1,2-a][1,4]diazocin-5(14H)-one]"
2,0.1 to 1 µM,"[2H]C([2H])([2H])N1C(=O)c2cccc(OC(F)F)c2[C@H]2C[C@@H]1c1nc3ccc(C#CCNC(C)C)cc3n12 [Example 66, (7R,14R)-1-(difluoromethoxy)-11-(3-(isopropylamino)prop-1-yn-1-yl)-6-(methyl-d3)-6,7-dihydro-7,14-methanobenzo[f]benzo[4,5]imidazo[1,2-a][1,4]diazocin-5(14H)-one]"
3,0.1 to 1 µM,"[2H]C([2H])([2H])N1C(=O)c2cccc(OC(F)F)c2[C@H]2C[C@@H]1c1nc3ccc(C#CC4(C)CN(CC(F)(F)F)C4)cc3n12 [Example 178, (7R,14R)-1-(difluoromethoxy)-6-(methyl-d3)-11-((3-methyl-1-(2,2,2-trifluoroethyl)azetidin-3-yl)ethynyl)-6,7-dihydro-7,14-methanobenzo[f]benzo[4,5]imidazo[1,2-a][1,4]diazocin-5(14H)-one]"
4,< 0.1 µM,"[2H]C([2H])([2H])N1C(=O)c2cccc(OC(F)F)c2[C@H]2C[C@@H]1c1nc3ccc(C#CC4CCN(C(=O)C(C)(C)O)CC4)cc3n12 [Example 186, (7R,14R)-1-(difluoromethoxy)-11-((1-(2-hydroxy-2-methylpropanoyl)piperidin-4-yl)ethynyl)-6-(methyl-d3)-6,7-dihydro-7,14-methanobenzo[f]benzo[4,5]imidazo[1,2-a][1,4]diazocin-5(14H)-one]"
5,< 0.1 µM,"CN1C(=O)c2cccc(OC(F)F)c2[C@H]2C[C@@H]1c1nc3ccc(C#Cc4cncnc4)cc3n12 [Example 4, (1R,11R)-18-(difluoromethoxy)-12-methyl-5-[2-(pyrimidin-5-yl)ethynyl]-2,9,12-triazapentacyclo[9.8.1.0^{2,10}.0^{3,8}.0^{14,19}]icosa-3(8),4,6,9,14(19),15,17-heptaen-13-one]"
6,< 0.1 µM,"[2H]C([2H])([2H])N1C(=O)c2cccc(OC(F)F)c2[C@H]2C[C@@H]1c1nc3ccc(C#Cc4cn[nH]c4)cc3n12 [Example 14, (7R,14R)-11-((1H-pyrazol-4-yl)ethynyl)-1-(difluoromethoxy)-6-(methyl-d3)-6,7-dihydro-7,14-methanobenzo[f]benzo[4,5]imidazo[1,2-a][1,4]diazocin-5(14H)-one]"
7,< 0.1 µM,"[2H]C([2H])([2H])N1C(=O)c2cccc(OC(F)F)c2[C@H]2C[C@@H]1c1nc3ccc(C#CC4CN(C(C)C)C4)cc3n12 [Example 119, (7R,14R)-1-(difluoromethoxy)-11-((1-isopropylazetidin-3-yl)ethynyl)-6-(methyl-d3)-6,7-dihydro-7,14-methanobenzo[f]benzo[4,5]imidazo[1,2-a][1,4]diazocin-5(14H)-one]"
8,< 0.1 µM,"[2H]C([2H])([2H])N1C(=O)c2cccc(OC(F)F)c2[C@H]2C[C@@H]1c1nc3ccc(C#Cc4cn(C)nn4)cc3n12 [Example 18, (7R,14R)-1-(difluoromethoxy)-6-(methyl-d3)-11-((1-methyl-1H-1,2,3-triazol-4-yl)ethynyl)-6,7-dihydro-7,14-methanobenzo[f]benzo[4,5]imidazo[1,2-a][1,4]diazocin-5(14H)-one]"
9,< 0.1 µM,"[2H]C([2H])([2H])N1C(=O)c2cccc(OC(F)F)c2[C@H]2C[C@@H]1c1nc3ccc(C#CC[Si](C)(C)C)cc3n12 [Example 90, (7R,14R)-1-(difluoromethoxy)-6-(methyl-d3)-11-(3-(trimethylsilyl)prop-1-yn-1-yl)-6,7-dihydro-7,14-methanobenzo[f]benzo[4,5]imidazo[1,2-a][1,4]diazocin-5(14H)-one]"
10,< 0.1 µM,"[2H]C([2H])([2H])N1C(=O)c2cccc(OC(F)F)c2[C@H]2C[C@@H]1c1nc3ccc(C#CCCN4CC(C)(C#N)C4)cc3n12 [Example 154, 1-(4-((7R,14R)-1-(difluoromethoxy)-6-(methyl-d3)-5-oxo-5,6,7,14-tetrahydro-7,14-methanobenzo[f]benzo[4,5]imidazo[1,2-a][1,4]diazocin-11-yl)but-3-yn-1-yl)-3-methylazetidine-3-carbonitrile]"
11,< 0.1 µM,"[2H]C([2H])([2H])N1C(=O)c2cccc(OC(F)F)c2[C@H]2C[C@@H]1c1nc3ccc(C#CC4CC(C)(O)C4)cc3n12 (stereo partly drawn) [Example 177, (7R,14R)-1-(difluoromethoxy)-11-((3-hydroxy-3-methylcyclobutyl)ethynyl)-6-(methyl-d3)-6,7-dihydro-7,14-methanobenzo[f]benzo[4,5]imidazo[1,2-a][1,4]diazocin-5(14H)-one]"
12,0.1 to 1 µM,"[2H]C([2H])([2H])N1C(=O)c2cccc(OC(F)F)c2[C@H]2C[C@@H]1c1nc3ccc(C#Cc4nnc(CNC)s4)cc3n12 [Example 46, (7R,14R)-1-(difluoromethoxy)-6-(methyl-d3)-11-((5-((methylamino)methyl)-1,3,4-thiadiazol-2-yl)ethynyl)-6,7-dihydro-7,14-methanobenzo[f]benzo[4,5]imidazo[1,2-a][1,4]diazocin-5(14H)-one]"
13,< 0.1 µM,"[2H]C([2H])([2H])N1C(=O)c2cccc(OC(F)F)c2[C@H]2C[C@@H]1c1nc3ccc(C#CCOC(C)C)cc3n12 [Example 74, (7R,14R)-1-(difluoromethoxy)-11-(3-isopropoxyprop-1-yn-1-yl)-6-(methyl-d3)-6,7-dihydro-7,14-methanobenzo[f]benzo[4,5]imidazo[1,2-a][1,4]diazocin-5(14H)-one]"
14,10 to 30 µM,"[2H]C([2H])([2H])N1C(=O)c2cccc(OC(F)F)c2[C@H]2C[C@@H]1c1nc3ccc(C#CCNC(C)(C)C)cc3n12 [Example 70, (7R,14R)-11-(3-(tert-butylamino)prop-1-yn-1-yl)-1-(difluoromethoxy)-6-(methyl-d3)-6,7-dihydro-7,14-methanobenzo[f]benzo[4,5]imidazo[1,2-a][1,4]diazocin-5(14H)-one]"
15,0.1 to 1 µM,"[2H]C([2H])([2H])N1C(=O)c2cccc(OC(F)F)c2[C@H]2C[C@@H]1c1nc3ccc(C#CC4(C)CN(CCO)C4)cc3n12 [Example 164, (7R,14R)-1-(difluoromethoxy)-11-((1-(2-hydroxyethyl)-3-methylazetidin-3-yl)ethynyl)-6-(methyl-d3)-6,7-dihydro-7,14-methanobenzo[f]benzo[4,5]imidazo[1,2-a][1,4]diazocin-5(14H)-one]"
16,< 0.1 µM,"[2H]C([2H])([2H])N1C(=O)c2cccc(OC(F)F)c2[C@H]2C[C@@H]1c1nc3ccc(C#CC4(C)CN(C(=O)C(C)(C)C)C4)cc3n12 [Example 167, (7R,14R)-1-(difluoromethoxy)-6-(methyl-d3)-11-((3-methyl-1-pivaloylazetidin-3-yl)ethynyl)-6,7-dihydro-7,14-methanobenzo[f]benzo[4,5]imidazo[1,2-a][1,4]diazocin-5(14H)-one]"
17,< 0.1 µM,"[2H]C([2H])([2H])N1C(=O)c2cccc(OC(F)F)c2[C@H]2C[C@@H]1c1nc3ccc(C#CC4CN(C(=O)C5(O)CC5)C4)cc3n12 [Example 195, (7R,14R)-1-(difluoromethoxy)-11-((1-(1-hydroxycyclopropane-1-carbonyl)azetidin-3-yl)ethynyl)-6-(methyl-d3)-6,7-dihydro-7,14-methanobenzo[f]benzo[4,5]imidazo[1,2-a][1,4]diazocin-5(14H)-one]"
18,0.1 to 1 µM,"[2H]C([2H])([2H])N1C(=O)c2cccc(OC(F)F)c2[C@H]2C[C@@H]1c1nc3ccc(C#CC4(C)CN(C(=O)C(C)(C)O)C4)cc3n12 [Example 156, (7R,14R)-1-(difluoromethoxy)-11-((1-(2-hydroxy-2-methylpropanoyl)-3-methylazetidin-3-yl)ethynyl)-6-(methyl-d3)-6,7-dihydro-7,14-methanobenzo[f]benzo[4,5]imidazo[1,2-a][1,4]diazocin-5(14H)-one]"
19,< 0.1 µM,"[2H]C([2H])([2H])N1C(=O)c2cccc(OC(F)F)c2[C@H]2C[C@@H]1c1nc3ccc(C#Cc4ccnn4C)cc3n12 [Example 13, (7R,14R)-1-(difluoromethoxy)-6-(methyl-d3)-11-((1-methyl-1H-pyrazol-5-yl)ethynyl)-6,7-dihydro-7,14-methanobenzo[f]benzo[4,5]imidazo[1,2-a][1,4]diazocin-5(14H)-one]"
20,< 0.1 µM,"[2H]C([2H])([2H])N1C(=O)c2cccc(OC(F)F)c2[C@H]2C[C@@H]1c1nc3ccc(C#CCCN4CC(C)(O)C4)cc3n12 [Example 143, (7R,14R)-1-(difluoromethoxy)-11-(4-(3-hydroxy-3-methylazetidin-1-yl)but-1-yn-1-yl)-6-(methyl-d3)-6,7-dihydro-7,14-methanobenzo[f]benzo[4,5]imidazo[1,2-a][1,4]diazocin-5(14H)-one]"
21,< 0.1 µM,"[2H]C([2H])([2H])N1C(=O)c2cccc(OC(F)F)c2[C@H]2C[C@@H]1c1nc3ccc(C#CC4CCNCC4)cc3n12 [Example 52, (7R,14R)-1-(difluoromethoxy)-6-(methyl-d3)-11-(piperidin-4-ylethynyl)-6,7-dihydro-7,14-methanobenzo[f]benzo[4,5]imidazo[1,2-a][1,4]diazocin-5(14H)-one]"

row,Compound,IC50
1,"[2H]C([2H])([2H])N1C(=O)c2cccc(OC(F)F)c2[C@H]2C[C@@H]1c1nc3ccc(C#CCOC(C)(C)C)cc3n12 [Example 56, (7R,14R)-11-(3-(tert-butoxy)prop-1-yn-1-yl)-1-(difluoromethoxy)-6-(methyl-d3)-6,7-dihydro-7,14-methanobenzo[f]benzo[4,5]imidazo[1,2-a][1,4]diazocin-5(14H)-one]",< 0.1 µM
